This passage reports AC50, Ki and Activity results from ChEMBL document CHEMBL1150002, “Synthesis and biological activities of new heterocyclic aromatic retinoids” (Bioorg Med Chem Lett, 1997).

Experiment [1] has as its system F9. The experiment can be described thus: Compound was tested for its ability to induce differentiation of F9 cells as estimated by plasminogen activator secretion (PA). Format: functional, cell-based. Particulars: Mus musculus.
Experiment [2] deals with T1, Retinoic acid receptor gamma (Homo sapiens, UniProt P13631).
T1 sequence (P13631 whole entry): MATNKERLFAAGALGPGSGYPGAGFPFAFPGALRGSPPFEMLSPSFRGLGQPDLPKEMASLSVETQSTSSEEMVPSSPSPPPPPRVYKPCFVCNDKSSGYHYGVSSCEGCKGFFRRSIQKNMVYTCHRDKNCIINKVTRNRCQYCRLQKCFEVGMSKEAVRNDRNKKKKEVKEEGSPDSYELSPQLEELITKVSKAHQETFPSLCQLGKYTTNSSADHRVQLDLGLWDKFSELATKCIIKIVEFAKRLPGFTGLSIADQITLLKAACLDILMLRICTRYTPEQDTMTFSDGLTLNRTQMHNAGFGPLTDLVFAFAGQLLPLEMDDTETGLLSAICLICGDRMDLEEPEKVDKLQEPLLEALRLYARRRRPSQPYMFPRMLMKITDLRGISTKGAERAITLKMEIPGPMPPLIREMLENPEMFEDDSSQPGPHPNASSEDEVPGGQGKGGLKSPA
The experiment in a line: Binding affinity towards Retinoic acid receptor gamma.

The target in experiment [3] is T2, Retinoic acid receptor beta (Homo sapiens, UniProt P10826).
T2 sequence (P10826 whole entry): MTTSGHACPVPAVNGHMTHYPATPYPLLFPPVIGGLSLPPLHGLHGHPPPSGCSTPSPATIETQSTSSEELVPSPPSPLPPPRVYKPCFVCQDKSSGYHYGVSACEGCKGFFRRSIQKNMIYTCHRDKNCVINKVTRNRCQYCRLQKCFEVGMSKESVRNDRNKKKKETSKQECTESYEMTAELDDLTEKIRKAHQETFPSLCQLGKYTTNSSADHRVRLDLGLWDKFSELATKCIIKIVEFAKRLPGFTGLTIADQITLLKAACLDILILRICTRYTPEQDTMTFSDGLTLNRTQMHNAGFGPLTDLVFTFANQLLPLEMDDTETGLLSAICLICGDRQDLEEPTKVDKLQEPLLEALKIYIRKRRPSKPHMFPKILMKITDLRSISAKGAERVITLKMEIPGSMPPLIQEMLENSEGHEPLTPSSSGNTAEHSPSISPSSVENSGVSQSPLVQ
The experiment in a line: Binding affinity towards Retinoic acid receptor beta.

The target of experiment [4] is T3, Retinoic acid receptor RXR-alpha (Homo sapiens) (UniProt P19793).
T3 sequence (whole entry): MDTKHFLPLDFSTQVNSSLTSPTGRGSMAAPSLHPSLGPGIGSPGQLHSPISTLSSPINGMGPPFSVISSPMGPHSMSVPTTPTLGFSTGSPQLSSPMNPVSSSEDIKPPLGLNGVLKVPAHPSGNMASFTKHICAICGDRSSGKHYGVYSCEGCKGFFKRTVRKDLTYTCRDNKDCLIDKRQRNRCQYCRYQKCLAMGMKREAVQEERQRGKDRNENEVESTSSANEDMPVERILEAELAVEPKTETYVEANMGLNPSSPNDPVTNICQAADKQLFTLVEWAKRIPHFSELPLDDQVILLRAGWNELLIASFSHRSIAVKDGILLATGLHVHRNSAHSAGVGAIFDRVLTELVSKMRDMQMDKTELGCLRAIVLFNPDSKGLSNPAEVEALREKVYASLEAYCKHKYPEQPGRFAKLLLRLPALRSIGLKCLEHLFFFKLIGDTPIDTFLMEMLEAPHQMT
The experiment can be described thus: Evaluated for RXR-alpha functional transcriptional activation; NA means not active at 1 uM.

Experiment [5] concerns the target T4, Retinoic acid receptor alpha (Homo sapiens, UniProt P10276).
T4 sequence (P10276 whole entry): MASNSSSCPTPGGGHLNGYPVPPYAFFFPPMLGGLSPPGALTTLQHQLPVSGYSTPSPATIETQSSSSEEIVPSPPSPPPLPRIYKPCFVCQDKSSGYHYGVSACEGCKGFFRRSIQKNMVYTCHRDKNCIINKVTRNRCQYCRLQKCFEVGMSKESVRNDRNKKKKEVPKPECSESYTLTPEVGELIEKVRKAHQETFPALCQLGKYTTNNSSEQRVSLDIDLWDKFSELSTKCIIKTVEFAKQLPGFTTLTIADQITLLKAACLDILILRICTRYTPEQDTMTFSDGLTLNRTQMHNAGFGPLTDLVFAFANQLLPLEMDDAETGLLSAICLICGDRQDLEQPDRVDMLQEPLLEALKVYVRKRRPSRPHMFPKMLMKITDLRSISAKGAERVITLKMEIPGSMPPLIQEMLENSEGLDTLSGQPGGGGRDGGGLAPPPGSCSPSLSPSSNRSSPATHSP
The experiment in a line: Binding affinity towards Retinoic acid receptor alpha.

Experiment [6] concerns F9. The experiment can be described thus: Compound was tested for its ability to induce differentiation of F9 cells as estimated by plasminogen activator secretion (PA); NA = Not active. It counts as functional, cell-based, Mus musculus.

The source made the active and inactive calls. The rule behind the calls is not given here. Bounds are passed on as bounds.

The term AC50 denotes the concentration at which the activity in the assay is half-maximal. By Ki is commonly meant the equilibrium dissociation constant of an inhibitor or competing ligand from its target. A lower Ki goes with tighter binding. For `CC(C)(C)c1cc(C2=Cc3ccc(C(=O)O)cc3OC2)cc(C(C)(C)C)c1O`, in the experiment with F9 [1], the AC50 was 305 nM. Also, the figures for the inhibition constant Ki in experiment [2] and in experiment [3] were 531 nM and above 3000 nM, respectively. Further, the result in experiment [4] was inactive.

As for `CC1(C)CCC(C)(C)c2cc(-c3ccc4cc(C(=O)O)ccc4c3)ccc21`, in experiment [4], the result was inactive.

On to `CC1(C)CCC(C)(C)c2cc(C3=Cc4ccc(C(=O)O)cc4OC3)ccc21`, for which the AC50 in the experiment on F9 [1] was 58 nM. Further, the values for the Ki in experiment [2], in experiment [3] and in experiment [5] were 19 nM, 36 nM and 487 nM, respectively. In addition, in experiment [4], the result was inactive.

On to `O=C(O)c1ccc2c(c1)OCC(c1ccc(O)c(C34C[C@H]5C[C@@H](C3)C[C@@H](C4)C5)c1)=C2`, for which the half-maximal activity concentration (AC50) in the experiment with F9 [1] was 107 nM. In addition, the Ki in experiment [2] is 148 nM; in experiment [3] it was above 3000 nM; in experiment [5], 821 nM. In addition, the outcome in experiment [4] was inactive.

With `CC(C)(C)c1cc(-c2ccc3cc(C(=O)O)ccc3c2)ccc1O`, the AC50 result in the experiment with F9 [6] is “Not Active”. Moreover, the Ki in experiment [3] and in experiment [5] was above 3000 nM each time. Also, in experiment [4], the result was inactive.

Consider `CC1(C)CCC(C)(C)c2cc(C3COc4cc(C(=O)O)ccc4C3)ccc21` (centres undefined), for which the AC50 in the experiment on F9 [1] was 300 nM. In addition, the Ki was determined as 1040 nM in experiment [2], 90 nM in experiment [3] and 5790 nM in experiment [5]. In addition, in experiment [4], the outcome was inactive.

With `COc1ccc(C2=Cc3ccc(C(=O)O)cc3OC2)cc1C12C[C@H]3C[C@@H](C1)C[C@@H](C2)C3`, the Ki came out at 174 nM in experiment [2], 71 nM in experiment [3] and 764 nM in experiment [5]. For the same compound, the result in experiment [4] was inactive.

Regarding `COc1ccc(-c2ccc3cc(C(=O)O)ccc3c2)cc1C12CC3CC(CC(C3)C1)C2`, the result in experiment [4] was inactive.

For the compound `CC(C)(C)c1cc(C2=Cc3ccc(C(=O)O)cc3OC2)ccc1O`, in the experiment on F9 [6], the AC50 entry is “Not Active”. The Ki in experiment [2], in experiment [3] and in experiment [5] was above 3000 nM throughout. Also, in experiment [4], the result was inactive.
